Results published in patent US9481659B2, “Selective heterocyclic sphingosine 1 phosphate receptor modulators” (Celgene International II SÀRL, priority 2011, dated 2016).
pEC50: −log10 of the molar value. Structures can show the parent of a compound that is named as a salt.

biological target: S1P1/EDG1 (Homo sapiens, UniProt P21453); experiment: S1P1 CRE-bla CHOK1 reporter assay, inhibition of Forskolin induced cAMP; type: cell-based; conditions: agonist activity range; S1P1 CRE-bla CHOK1 cells, 2 μM Forskolin; read-out: S1P1 ACTIVITY
Summary of the method: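 CRE-bla CHO K1 cells stably expressing human S1P1 were treated 4 hrs at 37° C with 10-point compound dilutions plus 2 μM Forskolin. Inhibition of cAMP-driven β-lactamase reporter was read with a FRET substrate loaded 2 hrs at room temperature.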

S1P1/EDG1, sequence (P21453 whole entry): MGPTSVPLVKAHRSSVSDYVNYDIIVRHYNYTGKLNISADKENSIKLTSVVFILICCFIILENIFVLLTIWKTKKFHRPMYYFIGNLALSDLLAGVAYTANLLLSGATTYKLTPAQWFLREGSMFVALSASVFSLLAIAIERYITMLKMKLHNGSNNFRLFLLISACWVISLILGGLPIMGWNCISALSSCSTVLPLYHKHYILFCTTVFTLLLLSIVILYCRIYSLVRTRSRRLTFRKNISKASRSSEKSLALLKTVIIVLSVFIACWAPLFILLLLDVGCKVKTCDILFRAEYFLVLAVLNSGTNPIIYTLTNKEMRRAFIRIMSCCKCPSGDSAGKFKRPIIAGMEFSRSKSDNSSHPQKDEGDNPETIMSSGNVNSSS

How did the pEC50 turn out when `CC(C)Oc1ccc(-c2nnc(-c3cccc4c3CCC[C@@H]4NS(=O)(=O)CCO)s2)cc1C#N` [Compound 290, (S)—N-(5-(5-(3-cyano-4-isopropoxyphenyl)-1,3,4-thiadiazol-2-yl)-1,2,3,4-tetrahydronaphthalen-1-yl)-2-hydroxyethanesulfonamide] was run?
The pEC50 was 9.30 to 10.30.

`CC(C)Oc1ccc(-c2nnc(-c3cccc4c3CCC[C@@H]4NCc3cccnc3)s2)cc1C#N` [Compound 271, (S)-2-isopropoxy-5-(5-(5-((pyridin-3-ylmethyl)amino)-5,6,7,8-tetrahydronaphthalen-1-yl)-1,3,4-thiadiazol-2-yl)benzonitrile] was tested. Which pEC50 did it give?
Its pEC50 is 8.30 to 9.30.

`CC(C)Oc1ccc(-c2nnc(-c3cccc4c3CC[C@H]4NS(N)(=O)=O)s2)cc1C#N` [Compound 48, (R)—N-(4-(5-(3-cyano-4-isopropoxyphenyl)-1,3,4-thiadiazol-2-yl)-2,3-dihydro-1H-inden-1-yl) sulfamide] was tested. Which pEC50 did it give?
The pEC50 was > 10.30.

With `CC(C)Oc1ccc(-c2ncc(-c3cccc4c3CC[C@H]4NC(=O)N3CC(O)C3)s2)cc1C#N` [Compound 171] as the compound, how does the pEC50 read?
The pEC50 was 9.30 to 10.30.

`CC(C)Oc1ccc(-c2ncc(-c3cccc4c3CC[C@H]4NC(=O)CO)s2)cc1C#N` [Compound 74] was tested. Which pEC50 did it give?
Its pEC50 is 9.30 to 10.30.

`CC(=O)N[C@H]1CCCc2c(-c3nnc(-c4ccc(OC(C)C)c(C#N)c4)s3)cccc21` [Compound 232, (S)—N-(5-(5-(3-cyano-4-isopropoxyphenyl)-1,3,4-thiadiazol-2-yl)-1,2,3,4-tetrahydronaphthalen-1-yl)acetamide] was tested. Which pEC50 did it give?
Its pEC50 is 8.30 to 9.30.

How did the pEC50 turn out when `CC(C)Oc1ccc(-c2nnc(-c3cccc4c3CCC[C@@H]4NC(=O)c3ccccn3)s2)cc1C#N` [Compound 243] was run?
Its pEC50 is < 8.30.

With `CC(C)Oc1ccc(-c2ncc(-c3cccc4c3CC[C@H]4NC(=O)N3CCC[C@H](O)C3)s2)cc1C#N` [Compound 199] as the compound, how does the pEC50 read?
Its pEC50 is 9.30 to 10.30.

How did the pEC50 turn out when `CC(C)Oc1ccc(-c2nnc(-c3cccc4c3CCC[C@H]4NCCS(C)(=O)=O)s2)cc1C#N` [Compound 296, (R)-2-isopropoxy-5-(5-(5-((2-(methylsulfonyl)ethyl)amino)-5,6,7,8-tetrahydronaphthalen-1-yl)-1,3,4-thiadiazol-2-yl)benzonitrile] was run?
Its pEC50 is 9.30 to 10.30.

With `CC(C)Oc1ccc(-c2nnc(-c3cccc4c3CC[C@H]4NCC(=O)O)s2)cc1C#N` [Compound 27, (R)-2-((4-(5-(3-cyano-4-isopropoxyphenyl)-1,3,4-thiadiazol-2-yl)-2,3-dihydro-1H-inden-1-yl)amino)acetic acid] as the compound, how does the pEC50 read?
Its pEC50 is 9.30 to 10.30.

With `CC(C)Oc1ccc(-c2ncc(-c3cccc4c3CC[C@H]4NS(=O)(=O)CCN3CC[C@H](N)C3)s2)cc1C#N` [Compound 136] as the compound, how does the pEC50 read?
Its pEC50 is < 8.30.

How did the pEC50 turn out when `CC(C)Oc1ccc(-c2nnc(-c3cccc4c3CCC[C@H]4NC(=O)CCNS(C)(=O)=O)s2)cc1C#N` [Compound 258] was run?
The pEC50 was 8.30 to 9.30.

With `CC(C)Oc1ccc(-c2ncc(-c3cccc4c3CC[C@H]4NC(=O)N3CCNCC3)s2)cc1C#N` [Compound 188] as the compound, how does the pEC50 read?
Its pEC50 is 8.30 to 9.30.

With `CC(C)Oc1ccc(-c2nnc(-c3cccc4c3CCC[C@H]4N)s2)cc1C#N` [Compound 228, (R)-5-(5-(5-amino-5,6,7,8-tetrahydronaphthalen-1-yl)-1,3,4-thiadiazol-2-yl)-2-isopropoxybenzonitrile hydrochloride] as the compound, how does the pEC50 read?
The pEC50 was 8.30 to 9.30.

`CC(C)Oc1ccc(-c2ncc(-c3cccc4c3CC[C@H]4NC(=O)N3CC[C@H](O)C3)s2)cc1C#N` [Compound 177] was tested. Which pEC50 did it give?
The pEC50 was 9.30 to 10.30.

How did the pEC50 turn out when `CC(C)Oc1ccc(-c2ncc(-c3cccc4c3CC[C@@H]4NS(=O)(=O)CCN3CCC[C@@H](O)C3)s2)cc1C#N` [Compound 141, N—((S)-4-(2-(3-cyano-4-isopropoxyphenyl)thiazol-5-yl)-2,3-dihydro-1H-inden-1-yl)-2-((R)-3-hydroxypiperidin-1-yl)ethanesulfonamide] was run?
Its pEC50 is 8.30 to 9.30.

With `CC(C)Oc1ccc(-c2nnc(-c3cccc4c3CC[C@H]4NCC(=O)N3CCCC3)s2)cc1C#N` [Compound 39] as the compound, how does the pEC50 read?
Its pEC50 is 9.30 to 10.30.

With `CC(C)Oc1ccc(-c2nnc(-c3cccc4c3CCC[C@@H]4NCCO)s2)cc1C#N` [Compound 300, (S)-5-(5-(5-((2-hydroxyethyl)amino)-5,6,7,8-tetrahydronaphthalen-1-yl)-1,3,4-thiadiazol-2-yl)-2-isopropoxybenzonitrile] as the compound, how does the pEC50 read?
Its pEC50 is 9.30 to 10.30.

`CC(C)Oc1ccc(-c2nnc(-c3cccc4c3CCC[C@@H]4NS(=O)(=O)CC(=O)N(C)C)s2)cc1C#N` [Compound 293, (S)-2-(N-(5-(5-(3-cyano-4-isopropoxyphenyl)-1,3,4-thiadiazol-2-yl)-1,2,3,4-tetrahydronaphthalen-1-yl)sulfamoyl)-N,N-dimethylacetamide] was tested. Which pEC50 did it give?
Its pEC50 is 9.30 to 10.30.

With `CC(C)Oc1ccc(-c2ncc(-c3cccc4c3CC[C@H]4NC(=O)N3CCC(N(C)C)CC3)s2)cc1C#N` [Compound 192] as the compound, how does the pEC50 read?
The pEC50 was < 8.30.

`CC(C)Oc1ccc(-c2ncc(-c3cccc4c3CCC[C@H]4N)s2)cc1C#N` [Compound 230, (R)-5-(5-(5-amino-5,6,7,8-tetrahydronaphthalen-1-yl)thiazol-2-yl)-2-isopropoxybenzonitrile hydrochloride] was tested. Which pEC50 did it give?
The pEC50 was 8.30 to 9.30.

With `CC(C)Oc1ccc(-c2ncc(-c3cccc4c3CC[C@H]4NS(=O)(=O)CCN(C)C)s2)cc1C#N` [Compound 123] as the compound, how does the pEC50 read?
The pEC50 was 8.30 to 9.30.

`COC(=O)N[C@@H]1CCc2c(-c3nnc(-c4ccc(OC(C)C)c(C#N)c4)s3)cccc21` [Compound 68] was tested. Which pEC50 did it give?
The pEC50 was 9.30 to 10.30.

How did the pEC50 turn out when `COC(=O)N[C@@H]1CCCc2c(-c3nnc(-c4ccc(OC(C)C)c(C#N)c4)s3)cccc21` [Compound 244] was run?
The pEC50 was 8.30 to 9.30.

How did the pEC50 turn out when `CNCCS(=O)(=O)N[C@@H]1CCc2c(-c3cnc(-c4ccc(OC(C)C)c(C#N)c4)s3)cccc21` [Compound 126] was run?
Its pEC50 is 8.30 to 9.30.

How did the pEC50 turn out when `CC(C)Oc1ccc(-c2nnc(-c3cccc4c3CC[C@H]4NC(=O)N3CC(O)C3)s2)cc1C#N` [Compound 65] was run?
Its pEC50 is 9.30 to 10.30.

How did the pEC50 turn out when `CC(C)Oc1ccc(-c2nnc(-c3cccc4c3CCC[C@@H]4NCc3ccccn3)s2)cc1C#N` [Compound 272] was run?
Its pEC50 is 8.30 to 9.30.

With `CC(C)Oc1ccc(-c2nnc(-c3cccc4c3CCC[C@H]4NS(=O)(=O)C3CC3)s2)cc1C#N` [Compound 282] as the compound, how does the pEC50 read?
The pEC50 was 8.30 to 9.30.

With `COCC(=O)N[C@@H]1CCc2c(-c3cnc(-c4ccc(OC(C)C)c(C#N)c4)s3)cccc21` [Compound 75] as the compound, how does the pEC50 read?
Its pEC50 is 9.30 to 10.30.

How did the pEC50 turn out when `CC(C)Oc1ccc(-c2nnc(-c3cccc4c3CCC[C@H]4NS(=O)(=O)CCO)s2)cc1C#N` [Compound 289, (R)—N-(5-(5-(3-cyano-4-isopropoxyphenyl)-1,3,4-thiadiazol-2-yl)-1,2,3,4-tetrahydronaphthalen-1-yl)-2-hydroxyethanesulfonamide] was run?
The pEC50 was 9.30 to 10.30.

With `CC(C)Oc1ccc(-c2nnc(-c3cccc4c3CCC[C@@H]4NS(C)(=O)=O)s2)cc1C#N` [Compound 279, (S)—N-(5-(5-(3 cyano-4-isopropoxyphenyl)-1,3,4-thiadiazol-2-yl)-1,2,3,4-tetrahydronaphthalen-1-yl)methanesulfonamide] as the compound, how does the pEC50 read?
Its pEC50 is 9.30 to 10.30.

How did the pEC50 turn out when `CC(C)Oc1ccc(-c2nnc(-c3cccc4c3CCC[C@H]4NCc3ccccn3)s2)cc1C#N` [Compound 264] was run?
Its pEC50 is 8.30 to 9.30.

How did the pEC50 turn out when `CC(C)Oc1ccc(-c2ncc(-c3cccc4c3CC[C@H]4NC(=O)CN(C)C)s2)cc1C#N` [Compound 81] was run?
The pEC50 was 8.30 to 9.30.

`CC(C)Oc1ccc(-c2nnc(-c3cccc4c3CCC[C@H]4NCCN(C)C)s2)cc1C#N` [Compound 274, (R)-5-(5-(5-((2-(dimethylamino)ethyl)amino)-5,6,7,8-tetrahydronaphthalen-1-yl)-1,3,4-thiadiazol-2-yl)-2-isopropoxybenzonitrile] was tested. Which pEC50 did it give?
Its pEC50 is 8.30 to 9.30.

With `CC(C)Oc1ccc(-c2nc(-c3cccc4c3CC[C@@H]4NCCO)ns2)cc1C#N` [Compound 311, (S)-5-(3-(1-(2-hydroxyethyl)amino)-2,3-dihydro-1H-inden-4-yl)-1,2,4-thiadiazol-5-yl)-2-isopropoxybenzonitrile hydrochloride] as the compound, how does the pEC50 read?
Its pEC50 is 8.30 to 9.30.

How did the pEC50 turn out when `CC(C)Oc1ccc(-c2nnc(-c3cccc4c3CCC[C@H]4NCCO)s2)cc1C#N` [Compound 299, (R)-5-(5-(5-((2-hydroxyethyl)amino)-5,6,7,8-tetrahydronaphthalen-1-yl)-1,3,4-thiadiazol-2-yl)-2-isopropoxybenzonitrile] was run?
Its pEC50 is 8.30 to 9.30.

With `CC(C)Oc1ccc(-c2nnc(-c3cccc4c3CCC[C@@H]4NC(=O)CN(C)C)s2)cc1C#N` [Compound 238] as the compound, how does the pEC50 read?
The pEC50 was 8.30 to 9.30.

With `COCC(=O)N[C@H]1CCCc2c(-c3nnc(-c4ccc(OC(C)C)c(C#N)c4)s3)cccc21` [Compound 239] as the compound, how does the pEC50 read?
The pEC50 was 8.30 to 9.30.

With `CC(C)Oc1ccc(-c2nnc(-c3cccc4c3CCC[C@H]4NS(=O)(=O)CC(=O)O)s2)cc1C#N` [Compound 287, (R)-2-(N-(5-(5-(3-cyano-4-isopropoxyphenyl)-1,3,4-thiadiazol-2-yl)-1,2,3,4-tetrahydronaphthalen-1-yl)sulfamoyl)acetic acid] as the compound, how does the pEC50 read?
The pEC50 was 9.30 to 10.30.

`CC(C)Oc1ccc(-c2nnc(-c3cccc4c3CC[C@H]4NC(=O)N3CCC(O)CC3)s2)cc1C#N` [Compound 62] was tested. Which pEC50 did it give?
The pEC50 was 8.30 to 9.30.

How did the pEC50 turn out when `CC(C)Oc1ccc(-c2ncc(-c3cccc4c3CC[C@H]4NC(=O)N3CC[C@@H](O)C3)s2)cc1C#N` [Compound 174] was run?
Its pEC50 is 9.30 to 10.30.

`CC(C)Oc1ccc(-c2ncc(-c3cccc4c3CC[C@@H]4NC(=O)N3CCC[C@@H](O)C3)s2)cc1C#N` [Compound 196] was tested. Which pEC50 did it give?
The pEC50 was 8.30 to 9.30.

How did the pEC50 turn out when `CC(C)Oc1ccc(-c2ncc(-c3cccc4c3CC[C@H]4NS(=O)(=O)CCN3CCC[C@H](O)C3)s2)cc1C#N` [Compound 144] was run?
The pEC50 was 8.30 to 9.30.

How did the pEC50 turn out when `CC(C)Oc1ccc(-c2nnc(-c3cccc4c3CC[C@H]4NCCS(C)(=O)=O)s2)cc1C#N` [Compound 32, (R)-2-isopropoxy-5-(5-(1-((2-(methylsulfonyl)ethyl)amino)-2,3-dihydro-1H-inden-4-yl)-1,3,4-thiadiazol-2-yl)benzonitrile] was run?
The pEC50 was > 10.30.

How did the pEC50 turn out when `CC(C)Oc1ccc(-c2ncc(-c3cccc4c3CC[C@H]4NC(=O)N3CCC(CO)CC3)s2)cc1C#N` [Compound 195] was run?
The pEC50 was 8.30 to 9.30.

With `COC(=O)N[C@H]1CCCc2c(-c3nnc(-c4ccc(OC(C)C)c(C#N)c4)s3)cccc21` [Compound 240] as the compound, how does the pEC50 read?
Its pEC50 is 9.30 to 10.30.

`CC(C)Oc1ccc(-c2nnc(-c3cccc4c3CCC[C@H]4NC(=O)c3cccnc3)s2)cc1C#N` [Compound 234] was tested. Which pEC50 did it give?
The pEC50 was 8.30 to 9.30.
